# Measurements published in BindingDB's records for doi:10.1021/jm060666p (University of Massachusetts Medical School, 2006).
# Target: T1, Dimer of Gag-Pol polyprotein [491-589,Q496K] (Human immunodeficiency virus 1, UniProt P03369, Q496K)
# T1 construct: 491-589
# Test: Enzyme Inhibition Assay
# Method: HIV-1 protease inhibitor activities were determined by the fluorescence resonance energy transfer (FRET) method. The energy transfer donor (EDANS) and acceptor (DABCYL) were labeled at two ends of peptide substrate to perform FRET. Fluorescence measurements were carried out on a fluorescence spectrophotometer. Excitation and emission wavelengths were set at 340 and 490 nm. Inhibitor binding dissociation constant Ki was obtained by nonlinear regression fitting to the plot of initial velocity as a function of inhibitor concentrations based on Morrison equation. The initial velocities were derived from the linear range of reaction curves.
row,Compound,Ki
1,"COc1cccc(S(=O)(=O)N(C[C@H]2CCCO2)C[C@@H](O)[C@H](Cc2ccccc2)NC(=O)[C@@H]2CN(c3ccccc3)C(=O)O2)c1 [(5S)-N-[(1S,2R)-1-Benzyl-2-hydroxy-3-[[(3-methoxyphenyl)-sulfonyl][(R)-(tetrahydro-2-furanyl)methyl]amino]propyl]-2-oxo-3-phenyloxazolidine-5-carboxamide]",42 nM
2,"COc1cccc(S(=O)(=O)N(C[C@H]2CCCO2)C[C@@H](O)[C@H](Cc2ccccc2)NC(=O)[C@@H]2CN(c3cccc(F)c3)C(=O)O2)c1 [(5S)-N-[(1S,2R)-1-Benzyl-2-hydroxy-3-[[(3-methoxyphenyl)-sulfonyl][(R)-(tetrahydro-2-furanyl)methyl]amino]propyl]-3-(3-fluorophenyl)-2-oxooxazolidine-5-carboxamide]",150 nM
